Experimental data taken from US20190153051A1, “FUSION PROTEIN OF C2 DOMAIN AND AKT KINASE DOMAIN FRAGMENT AND USE THEREOF” (Gachon University of Industry-Academic Cooperation …, priority 2017, published 2019).
Each block holds one molecule with its values, some of them ahead of it.

Assays:
[1] = ITC of phospholipid liposomes with calcium; assay type: binding; settings: liposome with POPC 80:20, 25° C.
Method: (§1) Particularly, a protein solution was prepared by suspending a protein in 10 mM HEPES (pH 7.0). Phospholipid related ligand was titrated in the protein solution at 25° C. by using iTC200 micro calorimetry system (MicroCal Inc., USA), and the generated graph was corrected using Origin software (MicroCal Inc., USA). At this time, the phospholipid related ligand was prepared in the form of liposome by mixing POPC (1-palmitoyl-2-oleoyl-sn-glycero-3-phosphocholin) chloroform solution and POPS (1-palmitoyl-2-oleoyl-sn-glycero-3-phosphoserine), PI(3,4)P2 (1,2-dipalmotoyl-sn-glycero-3-phosphatidylinositol-3,4-[…]), PI(4,5)P2 (1,2-dipalmotoyl-sn-glycero-3-phosphatidylinositol-4,5-trisphosphate) or PI(3,4,5)P3 (1,2-dipalmotoyl-sn-glycero-3-phosphatidylinositol-3,4,5-trisphosphate) at the molar ratio of 80:20. The organic solvent was eliminated. The organic solvent was removed and a single layer lamellar was produced in HEPES (pH 7.0) using phospholipids.

[2] = tested on: Akt protein; experiment: Western blotting of Akt protein phosphorylation in insulin-treated HepG2 cells; assay type: cell-based, human
Method: First, male C57BL/6 mice at 8 weeks were divided into the fasted group wherein the mice were fasted for 16 hours and the refed group wherein the mice were fasted for 16 hours and then fed for 4 hours. Each group was sub-divided into the high fat diet group (HFD) and the normal diet group (chow). The liver cells were extracted from the raised mice by the same manner and under the same conditions as described in Example 1. The extracted liver cells were lysed in a lysis buffer containing phosphatase (Sigma-Aldrich, USA) and protease inhibitor (Sigma-Aldrich, USA). Proteins extracted from 2 to 3 mg of the liver tissue were homogenized by using a tissue homogenizer (TissuLyser, Qiagen, USA) for 1.5 minutes at a frequency of 1/30 sec. The homogenized lysate was centrifuged at 12,000 rpm for 15 minutes and the supernatant was obtained. The amount of the extracted protein was quantified by using a protein assay kit (Bio-Rad Laboratories, USA), and at this time BSA was used as a standard sample. 3 mg of the protein was mixed with 6× loading buffer, followed by electrophoresis using 10% SDS-PAGE gel. The electrophoresed protein was transferred onto a polyvinylidene fluoride (PVDF) membrane by using a transfer buffer at 4° C. with 120 V for 1.5 hours. The PVDF membrane on which the protein was transferred was pretreated with a blocking buffer prepared by mixing 5% skim milk with TBS buffer (TBS-T, pH 7.6) supplemented with Tween 20 for 30 minutes, and the membrane was washed with TBS-T. The washed membrane was added with the antibody against Akt (Cell Signaling Technology, USA), Akt(T308) (Cell Signaling Technology, USA), Akt(S473) (Cell Signaling Technology, USA), FOXO3A (Cell Signaling Technology, USA), FOXO3A(S253) (Cell Signaling Technology, USA), GSK-3β (Cell Signaling Technology, USA) or GSK-3β(S9) (Cell Signaling Technology, USA) protein as a primary antibody, followed by reaction at 4° C. for 12 hours. At this time, the antibody against actin (Santa Cruz Biotechnology, USA) protein was used for the control group. Upon completion of the reaction, the secondary antibody corresponding to the primary antibody was added thereto, followed by reaction at room temperature for 30 minutes. The PVDF membrane was washed with TBS-T buffer three times. The washed PVDF membrane was added with ECL solution (Thermo Scientific, USA), followed by image observation.
To investigate the changes in insulin sensitivity when insulin was added to the fatty liver cell model constructed in vitro, the phosphorylations of those proteins that were involved in insulin signaling mechanism were examined. PA was added to the human HepG2 cells prepared in Example 3, followed by reaction for 24 hours. […]

[3] = ITC of C2 domain with PI(3,4,5)P3 liposomes; assay type: binding
Method: as §1
In the meantime, in ITC, the phospholipid related ligand was prepared in the form of liposome by mixing POPC chloroform solution and PI(3,4,5)P3 at the molar ratio of 80:20. Then, ITC was performed by the same manner under the same conditions as described in Example <7-3> except that the PKCβ protein C2 domain or D187/193A, the C2 domain mutant, was used.

[4] = Protein-lipid binding assay (PIP-strips)
Method: (§2) Particularly, the analysis was performed by using membrane-immobilized lipid strips (PIP-strips, Echelon Biosciences Inc., USA). At this time, the membrane was loaded with LPA (lysophosphatidic acid), LPC (lysophosphatidylcholine), PI (phosphatidylinositol), PE (phosphatidylethanolamine), PC (phosphatidylcholine), S1P (sphingosine 1-phosphate), PA (phosphatidic acid) or PS (phosphatidylserine) at the concentration of 100 pmol, to which calcium was added at the concentration of 0, 0.05 or 0.1 mM. Each membrane was pre-treated with a blocking buffer [fatty acid free 3% BSA (bovine serum albumin), 0.1% (v/v) Tween 20 and TBS (Tris-buffered saline), pH 7.5] at room temperature for 30 minutes. The PH domain of Atk protein purified in Example <7-1> was suspended in a blocking buffer at the concentration of 3.5 mg/Ml. The suspended protein was reacted with the membrane-immobilized lipid strip at room temperature for 30 minutes. The protein bound with lipid was identified by using the PH domain antibody.
To investigate whether or not the binding of the PKCβ protein C2 domain purified in Example <8-1> to PI(4,5)P2 or PI(3,4,5)P3 was inhibited by calcium, protein-lipid binding assay and ITC were performed. First, protein-lipid binding assay was performed by the same manner under the same conditions as described in Example <7-2> except that the PKCβ protein C2 domain was used instead of the Akt protein PH domain. At this time, D187/193A and D246/248A mutant proteins of the C2 domain were used as the control group, and the results are shown in FIG. 8.

[5] = tested on: CHO cells; experiment: Migration of mCherry-tagged PH or C2 domain to the cell membrane, fluorescence microscopy; assay type: cell-based
Text: First, the PH domain of Akt1 protein or the C2 domain of PKCβ protein was obtained by PCR using the primers consisting of the nucleotide sequences represented by […]. The obtained PCR product was cloned in pmCherry-C1 vector (Takara Clontech, Japan) by the conventional cloning method. CHO cells were transfected with the prepared vector by using lipofectamine according to the manufacturer's protocol. The transfected cells were selected by using blastidicin. Then, mCherry positive cells were confirmed by flow cytometry.
PMA at the concentration of 100 nM, ionomycin at the concentration of 10 μM or insulin at the concentration of 100 nM was added to the cells expressing the PH domain of Akt1 protein or the C2 domain of PKCβ protein and the location of the expressed protein was confirmed by fluorescence microscopy.

[6] = tested on: Akt protein; experiment: Western blot of Akt activation in HepG2 cells co-transfected with PI3K under increased calcium; assay type: cell-based, human
[7] = Protein-lipid binding assay (PIP-strips); remark: listed apart in the source
Method: as §2

[8] = HepG2, PMA 0, 10, 50 or 100 nM or ionomycin 0, 1, 5, 10 or 20 μM, 100 nM insulin, dose-dependent
[9] = membrane-immobilized lipid strips
[10] = intracellular calcium concentration increased (PMA 100 nM, ionomycin 10 μM)

binding to calcium [1]: high affinity
Molecule: CCCCCCCCCCCCCCCC(=O)OCC(COP(=O)(O)OC1C(O)C(O)C(OP(=O)(O)O)C(OP(=O)(O)O)C1O)OC(=O)CCCCCCCCCCCCCCC (stereo not shown) [PI(3,4)P2, 1,2-dipalmotoyl-sn-glycero-3-phosphatidylinositol-3,4-triphosphate]

binding to calcium [1]: high affinity
Molecule: CCCCCCCCCCCCCCCC(=O)OCC(COP(=O)(O)OC1C(O)C(OP(=O)(O)O)C(OP(=O)(O)O)C(OP(=O)(O)O)C1O)OC(=O)CCCCCCCCCCCCCCC (stereo not shown) [PI(3,4,5)P3, 1,2-dipalmotoyl-sn-glycero-3-phosphatidylinositol-3,4,5-trisphosphate]

binding to calcium [1]: high affinity
Molecule: CCCCCCCCCCCCCCCC(=O)OCC(COP(=O)(O)OC1C(O)C(O)C(OP(=O)(O)O)C(OP(=O)(O)O)C1O)OC(=O)CCCCCCCCCCCCCCC (stereo not shown) [PI(4,5)P2, 1,2-dipalmotoyl-sn-glycero-3-phosphatidylinositol-4,5-trisphosphate]

Molecule: CCCCCCCCCCCCCC(=O)O[C@@H]1[C@@H](C)[C@@]2(O)[C@@H](C=C(CO)C[C@]3(O)C(=O)C(C)=C[C@@H]23)[C@@H]2C(C)(C)[C@]12OC(C)=O [PMA, phorbol myristate acetate]
phosphorylation of Akt protein [2, 8]: significantly inhibited

Molecule: C[C@H](CCC(=O)O)C[C@H](C)C[C@H](C)C(=O)/C=C(\O)[C@H](C)C[C@H](C)C/C=C/[C@@H](C)[C@@H](O)[C@@H](C)[C@@H](O)C[C@@H]1CC[C@@](C)([C@H]2CC[C@@](C)([C@@H](C)O)O2)O1 [ionomycin]
phosphorylation of Akt protein [2, 8]: significantly inhibited

Molecule: COc1ccc(CCN(C)CCCC(C#N)(c2ccc(OC)c(OC)c2)C(C)C)cc1OC (stereo not shown) [verapamil]
phosphorylation of Akt protein ([2]; HepG2, verapamil 0, 5, 10 or 100 nM, effect of insulin addition): increased

binding to PI(3,4,5)P3 by ITC ([3]; absence of calcium): not induced
binding to PI(3,4,5)P3 by ITC ([3]; increased calcium concentration, POPC:PI(3,4,5)P3 80:20 liposome): strongly bound
effect of calcium on binding to PI(3,4,5)P3 ([4]; calcium 0, 0.05 or 0.1 mM): promoted
effect of calcium on binding to PI(4,5)P2 ([4]; calcium 0, 0.05 or 0.1 mM): promoted
binding to PI(3,4,5)P3 [4, 9]: strongly bound
binding to PI(4,5)P2 [4, 9]: strongly bound
Molecule: C2 domain of PKCβ protein: purified C2 domain of PKCβ protein, SEQ. ID. NO: 14
migration to the cell membrane ([5]; insulin 100 nM added): did not migrate to the cell membrane
migration to the cell membrane [5, 10]: migrated as the intracellular calcium concentration was increased

Molecule: wild type Akt protein: control: wild type Akt protein containing the PH domain, SEQ. ID. NO: 16
Akt protein activation by PI3K [6]: activated
Akt protein activation as calcium concentration increases ([6]; PMA 0, 10, 50 or 100 nM, ionomycin 20 μM, 1 hour): inhibited

binding to PI(3,4,5)P3 [4, 9]: bound
binding to PI(3,4)P2 [7, 9]: bound
B1: PH domain of Akt protein: purified PH domain of Akt1 protein, SEQ. ID. NO: 13 (protein)
chain: MSDVAIVKEGWLHKRGEYIKTWRPRYFLLKNDGTFIGYKERPQDVDQREAPLNNFSVAQCQLMKTERPRPNTFIIRCLQWTTVIERTFHVETPEEREEWTTAIQTVADGLKKQEEEEMDFRSGSPSDNSGAEEMEVSLAKPKHR
modifications: artificial_PH domain of Akt protein
effect of calcium on binding to PI(3,4,5)P3 ([4]; calcium 0, 0.05 or 0.1 mM): inhibited as calcium concentration was increased
migration to the cell membrane ([5]; insulin 100 nM added): migrated to the cell membrane
migration to the cell membrane [5, 10]: not observed
effect of calcium on binding to PI(3,4)P2 ([7]; calcium 0, 0.05 or 0.1 mM): inhibited as calcium concentration was increased
